According to patent publication US9018172B2, “Modification of peptides via SNAr reactions of thiols with fluorinated aromatics” (Massachusetts Institute of Technology, priority 2012, dated 2015):

Assays:
HEK293T cells = experiment: Confocal microscopy cell imaging of FITC-labeled peptide uptake; format: cell-based; conditions: 5 μM, 4 hours
Protocol: 293T HEK cells were cultured with DMEM with 10% FBS (v/v) in imaging dishes (70K cells/well) in 37° C., 5% CO2 incubator for two days until they are about 70% confluent. Appropriate amounts of peptides 7, 7a, 7b, 8a and 8b dissolved in autoclaved H2O were added to the cells to final concentrations of 5 μM. Peptide 9 was first dissolved in DMSO to make a 200 μM stock and then added to cells to a final concentration of 5 μM. The cells were incubated with the samples for 4 hours at 37° C. and 5% CO2. After incubation, cells were washed 3 times with DPBS and then fixed with 4% formaldehyde in DPBS for 10 minutes. They are then washed 3 times with HBSS and stained with 5 μg/mL wheat germ agglutinin-tetramethylrhodamine conjugate in HBSS for 20 minutes. The cells were subsequently washed with HBSS once and DPBS twice and stained with 5 μg/mL diamidino-2-phenylindole (DAPI) in DPBS for 30 minutes. They were washed 3 times with DPBS and covered in one drop of pri-Gold and cover slide. Images of peptide localization in cells were taken on PerkinElmer Ultraview Spinning Disk Confocal with 30% of its maximum laser power in 488 channel with 500 ms exposure time and 0.5 μm Z-stacking Image processing was done using Volocity software package (PerkinElmer).

[1] = Proteolysis assay with trypsin or chymotrypsin, LC-MS; format: in vitro ADME; conditions: isolated enzyme several chymotrypsin trypsin, pH 8.1; after 10 minutes with protease (trypsin/chymotrypsin), 37° C.; read-out: intact peptide observed
Protocol: 100 μL of peptide (100 μM) in phosphate buffer (pH 8.1) was mixed and incubated with 40 μL of the protease solution (trypsin—70 μg/mL; chymotrypsin—50 μg/mL) at 37° C. Aliquots of 35 μL were quenched with 55 μL of 1% TFA solution in MeCN and subjected to LC-MS analysis at 10, 25 and 40 minutes respectively. Peptide concentrations at different time points were quantified by integration of the TIC trace relative to the starting peptide sample. Note, that in the case of experiments with unstapled peptide 7, <1% of the intact peptide was observed after 10 minutes.

[2] = Temperature-dependent melting from CD spectra at 222 nm; format: physicochemical; conditions: CD at 222 nm
Protocol: CD measurements were done with Aviv 202 spectrometer using 1 mm quartz cuvette. Peptide solutions were made by dissolving solid samples in 25% acetonitrile/water mixture, CD spectra of 3a and 3b were measured in acetonitrile, CD spectra of affibodies was collected in 10 mM phosphate buffer. Concentration of affibodies was estimated by UV absorbance measurements at 280 nm. Contribution of the perfluorinated staple in 6a on the absorbance value at 280 nm was taken into account (estimated molar extinction coefficient for [—S—C6F4—S-]˜5000 cm^−1M^−1 from UV measurements of solutions of 6 and 6a) in these measurements. Data processing included solvent background correction (subtraction) and adjustment for pathlength and concentration (MRE=[θ]λ=θobs×1/(10 lcn); θobs=measured ellipticity, θ=mean residual ellipticity in deg×cm^2×dmol^−1, 1=pathlength (cm); c=concentration of peptide (M); n=# of amino acids). α-helicities of the peptides were estimated using previously established methods.

| Compound | cellular uptake (confocal microscopy) (HEK293T cells) | remaining at 10 min [1] [%] | temperature dependent melting properties [2] |
| --- | --- | --- | --- |
| CC[C@H](C)[C@H](NC(=O)CCNC(=S)Nc1ccc(-c2c3ccc(=O)cc-3oc3cc(O)ccc23)c(C(=O)O)c1)C(=O)N[C@H](C(=O)N[C@@H](Cc1ccccc1)C(=O)N[C@@H](CSCC(N)=O)C(=O)N[C@@H](CC(=O)O)C(=O)N[C@@H](CC(C)C)C(=O)N[C@@H](CC(C)C)C(=O)N[C@@H](CSCC(N)=O)C(=O)N[C@@H](Cc1ccc(O)cc1)C(=O)N[C@@H](Cc1ccc(O)cc1)C(=O)NCC(=O)N[C@@H](CCCCN)C(=O)N[C@@H](CCCCN)C(=O)N[C@@H](CCCCN)C(N)=O)[C@@H](C)O [Peptide 7] | no fluorescent positive cells | < 1 |  |
| Affibody 10a: HER-2 affibody with perfluoroaryl staple at Cys42, Cys46 on the C-terminal helix |  |  | not compromised |
